Source: PMC10073473, “Integrative omics-analysis of lipid metabolism regulation by peroxisome proliferator-activated receptor a and b agonists in male Atlantic cod” (Frontiers in Physiology, 2023)

Target: T1, Pparb (gmPparb) (Gadus morhua, UniProt A0A8C4ZA29)
T1 construct: gene PPARD
T1 sequence (A0A8C4ZA29 216-511 limits assumed): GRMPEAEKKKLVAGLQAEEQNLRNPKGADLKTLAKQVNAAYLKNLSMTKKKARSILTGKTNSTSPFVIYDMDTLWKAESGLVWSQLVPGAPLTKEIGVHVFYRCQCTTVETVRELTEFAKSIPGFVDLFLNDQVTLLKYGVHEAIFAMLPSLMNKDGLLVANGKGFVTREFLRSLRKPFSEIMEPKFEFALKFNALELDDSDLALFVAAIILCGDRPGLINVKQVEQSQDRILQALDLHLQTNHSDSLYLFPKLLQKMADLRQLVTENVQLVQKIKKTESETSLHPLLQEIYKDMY
Test: GAL4-LBD luciferase reporter gene assay in COS-7 cells
Format: cell-based

Question: With `Cc1cc(SCc2sc(-c3ccc(C(F)(F)F)cc3)nc2C)ccc1OCC(=O)O` [GW501516, 2-[2-Methyl-4-[[[4-methyl-2-[4-(trifluoromethyl)phenyl]-5-thiazolyl]methyl]thio]phenoxy]-acetic acid] as the compound, how does the EC50 read?
Answer: Its EC50 is 5.9 µM.
